Where a name gives a salt, the structure may show the parent alone.

The test system of the first test is HBsAg. Kind of test: HBsAg assay. It is filed as cell-based, hepatitis B virus. Particulars: Hepatitis B virus, HepG2.2.15, 144 h, read-out: sAg EC50, μM, HepG2.2.15 cells, day 6. Summed up: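 HepG2.2.15 cells were treated with serially diluted compounds (0.5% DMSO), with medium and compound renewed after 2-3 days. Secreted HBsAg measured at day 6 by chemiluminescence immunoassay; EC50 from dose-response curves. Viability assessed in parallel by CellTiter-Glo.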
As usually defined, the EC50 is the midpoint of the concentration-response curve. As to `COCCCCOc1cc2c(cc1Cl)-c1cc(=O)c(C(=O)O)cn1[C@H](C(C)C)CO2` [Example 38, (R)-2-Chloro-7-isopropyl-3-(4-methoxybutoxy)-11-oxo-6,7-dihydro-11H-benzo[f]pyrido[1,2-d][1,4]oxazepine-10-carboxylic acid], the EC50 was determined as 0.017 µM. As to `CC(C)[C@@H]1Cc2cc(O)c(O)nc2-c2cc(=O)c(C(=O)O)cn21` [Example 164, (6S)-2,3-Dihydroxy-6-isopropyl-10-oxo-5H,6H-pyrido[1,2-h]1,7-naphthyridine-9-carboxylic acid], the EC50 is 10 µM.

As for `COc1cc2c(cc1Cl)-c1cc(=O)c(C(=O)O)cn1C(CO)CO2` (stereo not shown) [Example 9], the EC50 was determined as 8.6 µM.

Regarding `COCCCOc1cc2c(cc1Cl)-c1cc(=O)c(C(=O)O)cn1[C@H](C(C)C)CO2` [Example 27, (R)-2-Chloro-7-isopropyl-3-(3-methoxypropoxy)-11-oxo-6,7-dihydro-11H-benzo[f]pyrido[1,2-d][1,4]oxazepine-10-carboxylic acid], the EC50 is 0.011 µM.

Regarding `COCCCOc1cc2c(cc1Cl)-c1cc(=O)c(NC(=O)OCc3ccccn3)cn1C(C(C)(C)C)C2` (stereo not shown) [Example 123, Pyridin-2-ylmethyl (6-(tert-butyl)-10-chloro-9-(3-methoxypropoxy)-2-oxo-6,7-dihydro-2H-pyrido[2,1-a]isoquinolin-3-yl)carbamate], the EC50 came to 2.4 µM. `COc1nc2c(cc1Cl)-c1cc(=O)c(C(=O)O)cn1C(C(C)C)CO2` (stereo not shown) [Example 104, 2-Chloro-7-isopropyl-3-methoxy-11-oxo-6,7-dihydro-11H-dipyrido[1,2-d:3′,2′-f][1,4]oxazepine-10-carboxylic acid]: the EC50 amounted to 24.2 µM. Turning to `COc1cc2c(cc1Cl)-c1cc(=O)c(C(=O)O)cn1C(COC(C)C)CO2` (stereo not shown) [Example 11, 2-Chloro-7-(isopropoxymethyl)-3-methoxy-11-oxo-6,7-dihydro-11H-benzo[f]pyrido[1,2-d][1,4]oxazepine-10-carboxylic acid], the EC50 was 12 µM.

Regarding `COCCCOc1cc2c(nc1OC)-c1cc3n[nH]c(=O)c-3cn1[C@H](C(C)C)C2` [Example 153, (S)-6-Isopropyl-2-methoxy-3-(3-methoxypropoxy)-5,10-dihydropyrazolo[3′,4′:4,5]pyrido[1,2-h][1,7]naphthyridin-9(6H)-one], the EC50 was found to be 0.23 µM. Still for that read-out and setting: the result for `COCCCOc1cc2c(cc1OC)-c1cc(=NOC)c(C(=O)OC)cn1C(C(C)C)C2` (stereo not shown) [Example 148, Methyl 6-isopropyl-10-methoxy-2-(methoxyimino)-9-(3-methoxypropoxy)-6,7-dihydro-2H-pyrido[2,1-a]isoquinoline-3-carboxylate] reads 13 µM.

Turning to `COCc1nc2c(s1)CC(C(C)C)n1cc(C(=O)O)c(=O)cc1-2` (stereo not shown) [Example 88, 5-Isopropyl-2-(methoxymethyl)-9-oxo-4,9-dihydro-5H-thiazolo[4,5-a]quinolizine-8-carboxylic acid], the EC50 stood at 3.1 µM. In the case of `CC(C)[C@@H]1COc2cc(N3CCOCC3)c(Cl)cc2-c2cc(=O)c(C(=O)O)cn21` [Example 62, (R)-2-Chloro-7-isopropyl-3-morpholino-11-oxo-6,7-dihydro-11H-benzo[f]pyrido[1,2-d][1,4]oxazepine-10-carboxylic acid], the concentration for a half-maximal effect (EC50) stood at 0.21 µM.

In the case of `COCCCOc1cc2c(cc1Cl)-c1cc(=O)c(N(C)C(=O)OC(C)(C)C)cn1[C@H](C(C)C)CO2` [Example 141, Tert-butyl (R)-(2-chloro-7-isopropyl-3-(3-methoxypropoxy)-11-oxo-6,7-dihydro-11H-benzo[f]pyrido[1,2-d][1,4]oxazepin-10-yl)(methyl)carbamate], the EC50 is 1 µM.

For the compound `Cc1cc2c(cc1OCC1CC1)OC[C@@H](C(C)C)n1cc(C(=O)O)c(=O)cc1-2` [Example 49, (R)-3-(Cyclopropylmethoxy)-7-isopropyl-2-methyl-11-oxo-6,7-dihydro-11H-benzo[f]pyrido[1,2-d][1,4]oxazepine-10-carboxylic acid], the concentration giving a half-maximal response (EC50) is 0.049 µM. For `COCCCOc1cc2c(cc1Cl)-c1cc(=O)c(NC(=O)NC(C)(C)C)cn1C(C(C)(C)C)C2` (stereo not shown) [Example 126, 3-Tert-butyl-1-[6-tert-butyl-10-chloro-9-(3-methoxypropoxy)-2-oxo-6H,7H-pyrido[2,1-a]isoquinolin-3-yl]urea], the EC50 was 6.1 µM. Turning to `COCCCOc1cc2c(cc1Cl)-c1cc(=O)c(-n3nn[nH]c3=O)cn1C(C(C)(C)C)C2` (stereo not shown) [Example 114, 6-(Tert-butyl)-10-chloro-9-(3-methoxypropoxy)-3-(5-oxo-4,5-dihydro-1H-tetrazol-1-yl)-6,7-dihydro-2H-pyrido [2,1-a]isoquinolin-2-one], the EC50 came to 3 µM.

As to `CN=c1cc2n(cc1C(=O)O)C(C(C)C)Cc1cc(OCCCOC)c(OC)cc1-2` (stereo not shown) [Example 147], the EC50 stood at 0.65 µM. Same read-out and setting: the result for `CCOC(=O)c1cn2c(cc1=O)-c1nc(OC)c(OCCCOC)cc1CC2(CC)CC` [Example 161, Ethyl 6,6-diethyl-2-methoxy-3-(3-methoxypropoxy)-10-oxo-5,10-dihydro-6H-pyrido[1,2-h][1,7]naphthyridine-9-carboxylate] reads 0.1 µM. Same read-out and setting: next, `COCCCOc1cc2c(cc1Cl)-c1cc(=O)c(NS(=O)(=O)C(F)(F)F)cn1C(C(C)(C)C)C2` (stereo not shown) [Example 128, N-(6-(Tert-butyl)-10-chloro-9-(3-methoxypropoxy)-2-oxo-6,7-dihydro-2H-pyrido[2,1-a]isoquinolin-3-yl)-1,1,1-trifluoromethanesulfonamide]: 4.7 µM; `COCCCOc1cc2c(nc1Cl)-c1cc(=O)c(C(=O)O)cn1C1(CCCC1)CO2` [Example 70, 2′-Chloro-3′-(3-methoxypropoxy)-11′-oxo-6′H,11′H-spiro[cyclopentane-1,7′-dipyrido[1,2-d:2′,3′-f][1,4]oxazepine]-10′-carboxylic acid]: 0.041 µM; `COCCCOc1cc2c(cc1Cl)-c1cc(=O)c(NC(=O)OC)cn1C(C(C)(C)C)C2` (stereo not shown) [Example 122, Methyl N-[6-tert-butyl-10-chloro-9-(3-methoxypropoxy)-2-oxo-6H,7H-pyrido[2,1-a]isoquinolin-3-yl]carbamate]: 17 µM. On to `Cc1c2n(cc(C(=O)O)c1=O)C(C(C)(C)C)Cc1cc3c(cc1-2)OCCCO3` (stereo not shown) [Example 100, 6-(Tert-butyl)-1-methyl-2-oxo-6,7,11,12-tetrahydro-2H,10H-[1,4]dioxepino[2,3-g]pyrido[2,1-a]isoquinoline-3-carboxylic acid], for which the EC50 was determined as 10 µM. Still for that read-out and setting: next, `COCCCOc1cc2c(cc1Cl)-c1cc(=O)c(N)cn1C(C(C)(C)C)C2` (stereo not shown) [Example 120, 3-Amino-6-tert-butyl-10-chloro-9-(3-methoxypropoxy)-6H,7H-pyrido[2,1-a]isoquinolin-2-one hydrochloride]: 3.9 µM; `COCCCOc1cc2c(nc1OC)-c1cc(=O)c(C(C)(C)O)cn1C(C(C)C)C2` (stereo not shown) [Example 143, 9-(2-Hydroxypropan-2-yl)-6-isopropyl-2-methoxy-3-(3-methoxypropoxy)-5,6-dihydro-10H-pyrido[1,2-h][1,7]naphthyridin-10-one]: 0.91 µM; `COCCCOc1cc2c(nc1OC)-c1cc(=O)c(C(=O)O)cn1C(C(C)C)C2` (stereo not shown) [Example 20, 6-Isopropyl-2-methoxy-3-(3-methoxypropoxy)-10-oxo-5,10-dihydro-6H-pyrido[1,2-h][1,7]naphthyridine-9-carboxylic acid]: 0.005 µM. On to `COCCCOc1cc2c(nc1OC)-c1cc(=O)c(C(=O)NO)cn1[C@H](C(C)C)C2` [Example 117, (S)—N-Hydroxy-6-isopropyl-2-methoxy-3-(3-methoxypropoxy)-10-oxo-5,10-dihydro-6H-pyrido[1,2-h][1,7]naphthyridine-9-carboxamide], for which the EC50 is 0.054 µM.

Staying with this test, now noted: read-out: sAg EC50; HepG2.2.15 cells, day 6.
For `COCCCOc1cc2c(nc1Cl)-c1cc(=O)c(C(=O)O)cn1C1C(CCC1(C)C)O2` (single isomer, unassigned) [Example 83, 6-Chloro-7-(3-methoxypropoxy)-12,12-dimethyl-3-oxo-9a,11,12,12a-tetrahydro-3H,10H-cyclopenta[b]dipyrido[1,2-d:2′,3′-f][1,4]oxazepine-2-carboxylic acid], the EC50 stood at 1 µM. On to `CC(C)(C)C1Cc2cc3c(cc2-c2cc(=O)c(C(=O)O)cn21)OCC1(COC1)CO3` (single isomer, unassigned) [Example 95, 6′-(Tert-butyl)-2′-oxo-6′,7′-dihydro-2′H,10′H,12′H-spiro[oxetane-3,11′-[1,4]dioxepino[2,3-g]pyrido[2,1-a]isoquinoline]-3′-carboxylic acid], for which the EC50 stood at 0.08 µM. On the same count and under the same terms, the result for `COCCCOc1cc2c([nH]c1=O)-c1cc(=O)c(C(=O)O)cn1C(C(C)C)C2` (single isomer, unassigned) [Example 167, 6-Isopropyl-3-(3-methoxypropoxy)-2,10-dioxo-2,5,6,10-tetrahydro-1H-pyrido[1,2-h][1,7]naphthyridine-9-carboxylic acid] reads 1 µM; that for `CC(C)(C)C1Cc2cc3c(cc2-c2cc(=O)c(C(=O)O)cn21)OCCCO3` (single isomer, unassigned) [Example 92, 6-(Tert-butyl)-2-oxo-6,7,11,12-tetrahydro-2H,10H-[1,4]dioxepino[2,3-g]pyrido[2,1-a]isoquinoline-3-carboxylic acid], 0.011 µM. Still for that read-out and setting: the result for `COCCCOc1cc2c(nc1Cl)-c1cc(=O)c(C(=O)O)cn1C1C(CCC1(C)C)O2` (single isomer, unassigned) [Example 82, 6-Chloro-7-(3-methoxypropoxy)-12,12-dimethyl-3-oxo-9a,11,12,12a-tetrahydro-3H,10H-cyclopenta[b]dipyrido[1,2-d:2′,3′-f][1,4]oxazepine-2-carboxylic acid] reads 0.008 µM; that for `COCCCOc1cc2c(nc1OC)-c1cc(=O)c(C(=O)O)cn1C(C)(C(C)C)C2` (single isomer, unassigned) [Example 157, 6-Isopropyl-2-methoxy-3-(3-methoxypropoxy)-6-methyl-10-oxo-5,10-dihydro-6H-pyrido[1,2-h][1,7]naphthyridine-9-carboxylic acid], 0.11 µM.

These data come from patent publication US11013726B2 (Arbutus Biopharma Corporation, priority 2016, dated 2021).
